test system: human JAK1 (a.a. 837-1142); test: In vitro JAK kinase assay (HTRF), JAK1; assay type: biochemical; conditions: ratio of IC50s, 1 mM ATP
Description: Compounds herein were tested for inhibitory activity of JAK targets according to the following in vitro assay described in Park et al., Analytical Biochemistry 1999, 269, 94-104. The catalytic domains of human JAK1 (a.a. 837-1142), JAK2 (a.a. 828-1132) and JAK3 (a.a. 781-1124) were expressed using baculovirus in insect cells and purified. The catalytic activity of JAK1, JAK2 or JAK3 was assayed by measuring the phosphorylation of a biotinylated peptide. The phosphorylated peptide was detected by homogenous time resolved fluorescence (HTRF). IC50s of compounds were measured for each kinase in the 40 μL reactions that contain the enzyme, ATP and 500 nM peptide in 50 mM Tris (pH 7.8) buffer with 100 mM NaCl, 5 mM DTT, and 0.1 mg/mL (0.01%) BSA. For the 1 mM IC50 measurements, ATP concentration in the reactions was 1 mM. Reactions were carried out at room temperature for 1 hour and then stopped with 20 μL 45 mM EDTA, 300 nM SA-APC, 6 nM Eu-Py20 in assay buffer (Perkin Elmer, Boston, Mass.). Binding to the Europium labeled antibody took place for 40 minutes and HTRF signal was measured on a PHERA star plate reader (BMG, Cary, N.C.). The Example compounds were each tested in the Example A assay (see Table 1 for data for the compounds of the examples as tested by the assay of Example A at 1 mM ATP).

JAK2/JAK1, >10:
CC(=O)NC(C)c1nc2cnc3ccsc3c2n1[C@H]1CC[C@H](CC#N)OC1 (stereo partly drawn) [Example 69, N-(1-{1-[(3S,6R)-6-(Cyanomethyl)tetrahydro-2H-pyran-3-yl]-1H-imidazo[4,5-d]thieno[3,2-b]pyridin-2-yl}ethyl) acetamide]
CNC(C)c1nc2cnc3ccsc3c2n1[C@H]1CC[C@H](CC#N)OC1 (stereo partly drawn) [Example 70, ((2R,5S)-5-{2-[1-(Methylamino)ethyl]-1H-imidazo[4,5-d]thieno[3,2-b]pyridin-1-yl}tetrahydro-2H-pyran-2-yl)acetonitrile]
CC(F)c1nc2cnc3ccsc3c2n1[C@H]1CC[C@H](CC#N)OC1 (stereo partly drawn) [Example 71, {(2R,5S)-5-[2-(1-Fluoroethyl)-1H-imidazo[4,5-d]thieno[3,2-b]pyridin-1-yl]tetrahydro-2H-pyran-2-yl}acetonitrile]
N#CCc1nc2cnc3ccsc3c2n1[C@H]1CC[C@H](CC#N)OC1 [Example 73, {(2R,5S)-5-[2-(Cyanomethyl)-1H-imidazo[4,5-d]thieno[3,2-b]pyridin-1-yl]tetrahydro-2H-pyran-2-yl}acetonitrile]
N#CCc1nc2cnc3ccsc3c2n1[C@H]1CC[C@@H](CC#N)OC1 [Example 74, {(2S,5S)-5-[2-(Cyanomethyl)-1H-imidazo[4,5-d]thieno[3,2-b]pyridin-1-yl]tetrahydro-2H-pyran-2-yl}acetonitrile]
C[C@@H](O)c1nc2cnc3ccsc3c2n1[C@H]1CC[C@H](CNS(C)(=O)=O)OC1 [Example 75, N-[((2R,5S)-5-{2-[(1R)-1-Hydroxyethyl]-1H-imidazo[4,5-d]thieno[3,2-b]pyridin-1-yl}tetrahydro-2H-pyran-2-yl)methyl]methanesulfonamide]
CC(C)OC(=O)NC[C@H]1CC[C@H](n2c([C@@H](C)O)nc3cnc4ccsc4c32)CO1 [Example 76, Isopropyl [((2R,5S)-5-{2-[(1R)-1-hydroxyethyl]-1H-imidazo[4,5-d]thieno[3,2-b]pyridin-1-yl}tetrahydro-2H-pyran-2-yl)methyl]carbamate]
COC(=O)NC[C@H]1CC[C@H](n2c([C@@H](C)O)nc3cnc4ccsc4c32)CC1 [Example 78, Methyl [(trans-4-{2-[(1R)-1-hydroxyethyl]-1H-imidazo[4,5-d]thieno[3,2-b]pyridin-1-yl}cyclohexyl)methyl]carbamate]
CC(=O)NC[C@H]1CC[C@H](n2c([C@@H](C)O)nc3cnc4ccsc4c32)CC1 [Example 79, N-[(trans-4-{2-[(1R)-1-Hydroxyethyl]-1H-imidazo[4,5-d]thieno[3,2-b]pyridin-1-yl}cyclohexyl)methyl]acetamide]
C[C@@H](O)c1nc2cnc3ccsc3c2n1[C@H]1CC[C@H](CNS(C)(=O)=O)CC1 [Example 80, N-[(trans-4-{2-[(1R)-1-Hydroxyethyl]-1H-imidazo[4,5-d]thieno[3,2-b]pyridin-1-yl}cyclohexyl)methyl]methanesulfonamide]
C[C@@H](O)c1nc2cnc3ccsc3c2n1[C@H]1CC[C@H](CNC(=O)N(C)C)CC1 [Example 81, N′-[(trans-4-{2-[(1R)-1-Hydroxyethyl]-1H-imidazo[4,5-d]thieno[3,2-b]pyridin-1-yl}cyclohexyl)methyl]-N,N-dimethylurea]
CCOC(=O)NC[C@H]1CC[C@H](n2c([C@@H](C)O)nc3cnc4ccsc4c32)CC1 [Example 82, Ethyl [(trans-4-{2-[(1R)-1-hydroxyethyl]-1H-imidazo[4,5-d]thieno[3,2-b]pyridin-1-yl}cyclohexyl)methyl]carbamate]

Source: patent US11161855B2, “Tricyclic fused thiophene derivatives as JAK inhibitors” (Incyte Corporation, priority 2012, dated 2021)
